Measurements from patent US20260306642A1, “STAT DEGRADERS AND USES THEREOF” (Recludix Pharma, Inc., priority 2023, published 2026).

How the values were obtained:
STAT3 = target: T1, STAT3 (Homo sapiens, UniProt P40763); assay: STAT3 Fluorescence Polarization (FP) Assay; type: binding
T1 construct: Recombinant STAT3 protein (STAT3(G127-I722))
In short: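 Recombinant STAT3 (G127–I722, 25 nM) was mixed with 2 nM 5-FAM-GpYLPQTV-NH2 probe in HEPES pH 7.4 buffer with 1% DMSO and serially diluted compound. Fluorescence polarization was read after 45 min at room temperature. IC50 came from nonlinear regression of mP versus log concentration and was binned A (≤100 nM), B (>100–1000 nM), C (>1–10 μM) or D (>10 μM).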

STAT6 = target: T2, STAT6 (Homo sapiens, UniProt P42226); assay: STAT6 Fluorescence Polarization (FP) Assay; type: binding
T2 construct: Recombinant STAT6 protein (STAT6(W123-T658))
T2 sequence (P42226 123-658): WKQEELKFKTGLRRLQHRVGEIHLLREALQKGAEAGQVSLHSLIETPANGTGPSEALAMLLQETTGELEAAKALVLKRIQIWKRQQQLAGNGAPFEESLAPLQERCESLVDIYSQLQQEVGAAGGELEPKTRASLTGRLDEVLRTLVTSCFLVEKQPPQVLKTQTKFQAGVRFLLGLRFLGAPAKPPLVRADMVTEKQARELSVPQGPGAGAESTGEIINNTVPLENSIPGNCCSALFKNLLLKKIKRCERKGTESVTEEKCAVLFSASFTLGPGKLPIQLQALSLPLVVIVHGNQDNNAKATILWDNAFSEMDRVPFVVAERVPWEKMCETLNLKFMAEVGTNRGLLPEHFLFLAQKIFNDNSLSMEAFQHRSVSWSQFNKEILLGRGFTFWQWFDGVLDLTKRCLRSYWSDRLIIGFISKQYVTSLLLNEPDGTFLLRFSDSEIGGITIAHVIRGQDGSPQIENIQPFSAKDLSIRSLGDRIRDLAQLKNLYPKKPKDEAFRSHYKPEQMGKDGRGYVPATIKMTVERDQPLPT
In short: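 STAT6(W123-T658) at 250 nM with 2 nM 5-FAM-ApYKPFQDLI-NH2 probe in HEPES pH 7.4, 50 mM NaCl, EDTA, Tween 20, DTT, 1% DMSO. FP read after 45 min at room temperature; IC50 from nonlinear fit of mP versus log concentration.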

pSTAT6 = target: T3, pSTAT6 (Homo sapiens, UniProt P42226); assay: MSD-pSTAT-PBMC Assay (pSTAT6, IL-4 stimulated); type: cell-based; conditions: compound 3 hrs, then 1 ng/mL IL-4 10 min, pY641-STAT6, read-out: pSTAT6 IC50
T3 sequence (P42226 1-847): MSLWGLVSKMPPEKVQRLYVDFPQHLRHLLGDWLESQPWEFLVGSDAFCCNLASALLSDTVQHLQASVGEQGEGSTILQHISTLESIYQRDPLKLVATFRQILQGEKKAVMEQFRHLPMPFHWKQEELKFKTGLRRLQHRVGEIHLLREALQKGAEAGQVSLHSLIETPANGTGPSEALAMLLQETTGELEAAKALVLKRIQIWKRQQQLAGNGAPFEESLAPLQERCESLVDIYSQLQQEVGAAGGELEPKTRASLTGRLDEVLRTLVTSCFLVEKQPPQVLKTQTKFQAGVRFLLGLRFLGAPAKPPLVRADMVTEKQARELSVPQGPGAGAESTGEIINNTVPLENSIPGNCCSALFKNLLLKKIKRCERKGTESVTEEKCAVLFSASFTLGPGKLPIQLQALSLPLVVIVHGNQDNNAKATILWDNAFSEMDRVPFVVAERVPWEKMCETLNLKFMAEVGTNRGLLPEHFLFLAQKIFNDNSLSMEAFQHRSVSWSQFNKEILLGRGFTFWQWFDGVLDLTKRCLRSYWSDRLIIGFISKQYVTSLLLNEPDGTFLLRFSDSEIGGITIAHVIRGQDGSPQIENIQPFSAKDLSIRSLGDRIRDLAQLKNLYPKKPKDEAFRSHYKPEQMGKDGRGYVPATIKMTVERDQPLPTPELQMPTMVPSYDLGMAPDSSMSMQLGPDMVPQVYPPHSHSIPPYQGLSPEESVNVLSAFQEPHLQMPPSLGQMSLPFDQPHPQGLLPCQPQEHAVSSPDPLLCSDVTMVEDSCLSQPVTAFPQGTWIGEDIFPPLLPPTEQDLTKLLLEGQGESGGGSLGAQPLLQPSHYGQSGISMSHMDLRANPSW
Excerpt: Cryopreserved Peripheral Blood Mononuclear Cells (PBMC) are from AllCells. Recombinant Human IL-4 and IL-6 are from Peprotech. Mouse monoclonal anti-STAT3 antibody, rabbit monoclonal anti-pY705-STAT3 antibody, rabbit monoclonal Anti-pY641-STAT6 antibody, and lysis buffer are from Cell Signaling Technology (CST). Mouse monoclonal anti-STAT6 antibody is from BioLegend. Assay plates, blocker, and anti-rabbit secondary antibody are from Meso Scale Discovery (MSD).
Cryopreserved PBMCs were thawed out and allowed to recover overnight in IMDM+10% heat-inactivated FBS prior to plating 50,000 (STAT3) or 25,000 (STAT6) cells per well in 96-well U-bottom tissue culture plates. Cells were treated with compound for 3 hrs, then stimulated with 10 ng/mL IL-6 (STAT3) or 1 ng/mL IL-4 (STAT6) for 10 min. Cells were then spun down and washed with ice-cold PBS prior to lysing the cell pellet with 1× lysis buffer (CST) with 1× HALT protease and phosphatase inhibitor cocktail (Thermo). Lysates were transferred to and incubated overnight at 4° C. with shaking in QuickPlex 96-well high bind assay plates (MSD) pre-coated overnight with 30 μL per well of […] mouse monoclonal anti-STAT3 antibody (STAT3) or 2 μg/mL mouse monoclonal anti-STAT6 antibody (STAT6) in 1× PBS, and pre-blocked for 1 hour with 3% Blocker-A (MSD). Captured protein in the assay plates were then washed and probed with 25 μL per well of […] rabbit monoclonal anti-pY705-STAT3 antibody (STAT3) or […] rabbit monoclonal Anti-pY641-STAT6 antibody (STAT6) in 1% Blocker-A for 1 hour at room temperature with shaking, then washed and probed with 25 ul per well of 1 ug/ml Sulfo-TAG Labeled Goat Anti-Rabbit Antibody (MSD) in 1% Blocker-A for 1 hour at room temperature with shaking. Assay plates were then washed and 150 μL of 1× Read Buffer-T (MSD) was added to each well prior to reading on an SQ120 MSD Plate Reader. Assay signal from each sample was subtracted by the signal from unstimulated control wells and normalized to DMSO control wells. IC50 values were calculated using Graph Pad Prism Dose-Response Nonlinear Regression with variable slope. For both pSTAT3 and pSTAT6 A=≤100 nM; B=>100-1000 nM; C=>1000-3000 nM; and D=>3 μM.

T1 sequence (P40763 127-722): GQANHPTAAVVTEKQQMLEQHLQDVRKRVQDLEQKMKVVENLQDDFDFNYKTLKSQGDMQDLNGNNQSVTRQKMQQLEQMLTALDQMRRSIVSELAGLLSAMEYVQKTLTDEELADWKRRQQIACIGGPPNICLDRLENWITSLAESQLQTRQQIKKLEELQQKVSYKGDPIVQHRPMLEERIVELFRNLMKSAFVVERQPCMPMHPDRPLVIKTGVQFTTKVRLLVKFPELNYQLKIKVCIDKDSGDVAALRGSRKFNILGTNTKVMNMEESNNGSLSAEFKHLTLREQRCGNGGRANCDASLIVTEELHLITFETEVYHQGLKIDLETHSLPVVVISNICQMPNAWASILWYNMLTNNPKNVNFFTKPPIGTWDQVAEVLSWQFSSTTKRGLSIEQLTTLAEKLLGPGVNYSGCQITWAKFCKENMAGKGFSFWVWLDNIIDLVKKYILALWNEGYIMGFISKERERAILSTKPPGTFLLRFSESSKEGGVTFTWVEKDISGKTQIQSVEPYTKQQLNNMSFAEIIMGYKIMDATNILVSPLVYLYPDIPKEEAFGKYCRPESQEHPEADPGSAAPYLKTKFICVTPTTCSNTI

IC50 (STAT3)	IC50 (STAT6)	IC50 (pSTAT6)	Structure (SMILES)
1 to 10 µM	0.3 to 3 µM	> 3 µM	O=C1CCC(N2Cc3c(OCCOCCOCCn4ccc([C@@H]5CN(C(=O)[C@@H]6CC[C@@H]7CCCC[C@H](NC(=O)c8cc9cc(C(F)(F)P(=O)(O)O)ccc9s8)C(=O)N76)C6(CC6)C5)cc4=O)cccc3C2=O)C(=O)N1 (stereo partly drawn) [Compound 27, ((2-(((3S,6S,10aS)-3-((6R)-6-(1-(2-(2-(2-((2-(2,6-dioxopiperidin-3-yl)-1-oxoisoindolin-4-yl)oxy)ethoxy)ethoxy)ethyl)-2-oxo-1,2-dihydropyridin-4-yl)-4-azaspiro[2.4]heptane-4-carbonyl)-5-oxodecahydropyrrolo[1,2-a]azocin-6-yl)carbamoyl)benzo[b]thiophen-5-yl)difluoromethyl)phosphonic acid]
0.1 to 1 µM	< 0.3 µM	1 to 3 µM	N#CC1CN(C(=O)C2CCC3CCCCC(NC(=O)c4cc5cc(C(F)(F)P(=O)(O)O)ccc5s4)C(=O)N32)CC1c1cccc(N2CCN(c3ccc4c(c3)[nH]c(=O)n4C3CCC(=O)NC3=O)CC2)c1 [Compound 22, ((2-(((3S,6S,10aS)-3-((rel-3S,4R)-3-cyano-4-(3-(4-(1-(2,6-dioxopiperidin-3-yl)-2-oxo-2,3-dihydro-1H-benzo[d]imidazol-5-yl)piperazin-1-yl)phenyl)pyrrolidine-1-carbonyl)-5-oxodecahydropyrrolo[1,2-a]azocin-6-yl)carbamoyl)benzo[b]thiophen-5-yl)difluoromethyl)phosphonic acid]
1 to 10 µM	< 0.3 µM	1 to 3 µM	O=C1CCC(c2ccc(OCCCCCn3ccc([C@@H]4CN(C(=O)[C@@H]5CC[C@@H]6CCCC[C@H](NC(=O)c7cc8cc(C(F)(F)P(=O)(O)O)ccc8s7)C(=O)N65)C5(CC5)C4)cc3=O)cc2)C(=O)N1 (stereo partly drawn) [Compound 17, ((2-(((3S,6S,10aS)-3-((6R)-6-(1-(5-(4-(2,6-dioxopiperidin-3-yl)phenoxy)pentyl)-2-oxo-1,2-dihydropyridin-4-yl)-4-azaspiro[2.4]heptane-4-carbonyl)-5-oxodecahydropyrrolo[1,2-a]azocin-6-yl)carbamoyl)benzo[b]thiophen-5-yl)difluoromethyl)phosphonic acid]
1 to 10 µM	0.3 to 3 µM	0.1 to 1 µM	O=C1CCC(N2Cc3c(C#CCCCCCCn4ccc([C@@H]5CN(C(=O)[C@@H]6CC[C@@H]7CCCC[C@H](NC(=O)c8cc9cc(C(F)(F)P(=O)(O)O)ccc9s8)C(=O)N76)C6(CC6)C5)cc4=O)cccc3C2=O)C(=O)N1 (stereo partly drawn) [Compound 5, ((2-(((3S,6S,10aS)-3-((6R)-6-(1-(8-(2-(2,6-dioxopiperidin-3-yl)-1-oxoisoindolin-4-yl)oct-7-yn-1-yl)-2-oxo-1,2-dihydropyridin-4-yl)-4-azaspiro[2.4]heptane-4-carbonyl)-5 oxodecahydropyrrolo[1,2-a]azocin-6-yl)carbamoyl)benzo[b]thiophen-5-yl)difluoromethyl)phosphonic acid]

Structure (SMILES)	IC50 (STAT3)	IC50 (STAT6)	IC50 (pSTAT6)
N#C[C@@H]1CN(C(=O)[C@@H]2CC[C@@H]3CCCC[C@H](NC(=O)c4cc5cc(C(F)(F)P(=O)(O)O)ccc5s4)C(=O)N32)C[C@H]1c1cccc(OCCCCOc2ccc(C3CCC(=O)NC3=O)cc2)c1 (mixture of isomers) [Compound 3, trans-((2-(((3S,6S,10aS)-3-(3-cyano-4-(3-(4-(4-(2,6-dioxopiperidin-3-yl)phenoxy)butoxy)phenyl)pyrrolidine-1-carbonyl)-5-oxodecahydropyrrolo[1,2-a]azocin-6-yl)carbamoyl)benzo[b]thiophen-5-yl)difluoromethyl)phosphonic acid]	0.1 to 1 µM	< 0.3 µM	1 to 3 µM
